Where “and” joins values, the source holds several entries; their conditions need not be identical. Identical values can stand only once. HELM strings list units from the 5' end as sugar, base in round brackets, then linkage (d deoxyribose, r ribose, m 2'-O-methyl, p phosphodiester). Methylation of C is not given here. [moe] = 2'-O-(2-methoxyethyl) (MOE); [cEt] = constrained ethyl (cEt); [sp] = phosphorothioate linkage
Biological target: HBV
Conditions: ASO

| Substance | target mRNA inhibition (HepG2, 0.07 µM) | also measured |
| --- | --- | --- |
| RNA1{[moe](G)[sp].[moe](A)[sp].[moe](T)[sp].d(G)[sp].d(A)[sp].d(G)[sp].d(G)[sp].d(C)[sp].d(A)[sp].d(T)[sp].d(A)[sp].d(G)[sp].[moe](C)[sp].[moe](A)[sp].[moe](G)[sp].[moe](C)[sp].[moe](A)}$$$$V2.0 | 51% |  |
| RNA1{[moe](G)[sp].[moe](A)[sp].d(G)[sp].d(A)[sp].d(A)[sp].d(G)[sp].d(T)[sp].d(C)[sp].d(C)[sp].d(A)[sp].d(C)[sp].[moe](C)[sp].[moe](A)[sp].[moe](C)[sp].[moe](G)[sp].[moe](A)[sp].[moe](G)}$$$$V2.0 | 35% and 21% |  |
| RNA1{[moe](A)[sp].[moe](A)[sp].[moe](C)[sp].[moe](C)[sp].[moe](A)[sp].[moe](C)[sp].d(T)[sp].d(G)[sp].d(A)[sp].d(A)[sp].d(C)[sp].d(A)[sp].d(A)[sp].d(A)[sp].d(T)[sp].[moe](G)[sp].[moe](G)}$$$$V2.0 | 60% and 45% |  |
| RNA1{[moe](A)[sp].[moe](G)[sp].[moe](A)[sp].d(G)[sp].d(G)[sp].d(T)[sp].d(G)[sp].d(A)[sp].d(A)[sp].d(G)[sp].d(C)[sp].d(G)[sp].[moe](A)[sp].[moe](A)[sp].[moe](G)[sp].[moe](T)[sp].[moe](G)}$$$$V2.0 | 70% and 52% |  |
| RNA1{[moe](G)[sp].[cEt](A)[sp].[cEt](A)[sp].d(G)[sp].d(A)[sp].d(T)[sp].d(G)[sp].d(A)[sp].d(G)[sp].d(G)[sp].d(C)[sp].d(A)[sp].d(T)[sp].[cEt](A)[sp].[cEt](G)[sp].[moe](C)}$$$$V2.0 | 69% and 66% |  |
| RNA1{[moe](T)[sp].[moe](C)[sp].[moe](C)[sp].d(G)[sp].d(C)[sp].d(A)[sp].d(G)[sp].d(T)[sp].d(A)[sp].d(T)[sp].d(G)[sp].d(G)[sp].[moe](A)[sp].[moe](T)[sp].[moe](C)[sp].[moe](G)}$$$$V2.0 | 65% and 72% |  |
| RNA1{[moe](A)[sp].[moe](A)[sp].[moe](C)[sp].d(T)[sp].d(G)[sp].d(G)[sp].d(A)[sp].d(G)[sp].d(C)[sp].d(C)[sp].d(A)[sp].d(C)[sp].[moe](C)[sp].[moe](A)[sp].[moe](G)[sp].[moe](C)}$$$$V2.0 | 59% and 56% |  |
| RNA1{[moe](G)[sp].[moe](A)[sp].[moe](G)[sp].[moe](G)[sp].d(C)[sp].d(A)[sp].d(T)[sp].d(A)[sp].d(G)[sp].d(C)[sp].d(A)[sp].d(G)[sp].d(C)[sp].[moe](A)[sp].[moe](G)[sp].[moe](G)}$$$$V2.0 | 45% and 50% |  |
| RNA1{[moe](C)[sp].[moe](A)[sp].[moe](A)[sp].[moe](T)[sp].[moe](T)[sp].d(T)[sp].d(A)[sp].d(T)[sp].d(G)[sp].d(C)[sp].d(C)[sp].d(T)[sp].d(A)[sp].d(C)[sp].[moe](A)[sp].[moe](G)}$$$$V2.0 | 24% and 11% |  |
| RNA1{[moe](A)[sp].[cEt](C)[sp].[cEt](C)[sp].d(A)[sp].d(C)[sp].d(T)[sp].d(G)[sp].d(A)[sp].d(A)[sp].d(C)[sp].d(A)[sp].d(A)[sp].d(A)[sp].[cEt](T)[sp].[cEt](G)[sp].[moe](G)}$$$$V2.0 | 70% and 57% |  |
| RNA1{[moe](A)[sp].[moe](C)[sp].[moe](G)[sp].[moe](T)[sp].d(G)[sp].d(C)[sp].d(A)[sp].d(G)[sp].d(A)[sp].d(G)[sp].d(G)[sp].d(T)[sp].d(G)[sp].[moe](A)[sp].[moe](A)[sp].[moe](G)[sp].[moe](C)}$$$$V2.0 | 62% and 57% |  |
| RNA1{[moe](C)[sp].[moe](G)[sp].[moe](C)[sp].[moe](A)[sp].[moe](G)[sp].[moe](T)[sp].d(A)[sp].d(T)[sp].d(G)[sp].d(G)[sp].d(A)[sp].d(T)[sp].d(C)[sp].d(G)[sp].d(G)[sp].[moe](C)[sp].[moe](A)}$$$$V2.0 | 83% and 70% | target mRNA inhibition (HepG2, 0.0092593 µM): 10%; target mRNA inhibition (HepG2, 0.0277778 µM): 35%; target mRNA inhibition (HepG2, 0.0833333 µM): 44%; target mRNA inhibition (HepG2, 0.25 µM): 76% |
| RNA1{[moe](G)[sp].[cEt](G)[sp].d(A)[sp].d(G)[sp].d(T)[sp].d(T)[sp].d(C)[sp].d(C)[sp].d(G)[sp].d(C)[sp].d(A)[sp].d(G)[sp].[cEt](T)[sp].[moe](A)[sp].[cEt](T)[sp].[moe](G)}$$$$V2.0 | 78% and 87% | target mRNA inhibition (HepG2, 0.0092593 µM): 12%; target mRNA inhibition (HepG2, 0.0277778 µM): 49%; target mRNA inhibition (HepG2, 0.0833333 µM): 79%; target mRNA inhibition (HepG2, 0.25 µM): 89% |
| RNA1{[moe](G)[sp].[moe](C)[sp].[moe](A)[sp].d(T)[sp].d(A)[sp].d(G)[sp].d(C)[sp].d(A)[sp].d(G)[sp].d(C)[sp].d(A)[sp].d(G)[sp].d(G)[sp].[cEt](A)[sp].[cEt](T)[sp].[cEt](G)}$$$$V2.0 | 67% and 76% |  |
| RNA1{[moe](T)[sp].[cEt](G)[sp].d(G)[sp].d(A)[sp].d(G)[sp].d(C)[sp].d(C)[sp].d(A)[sp].d(C)[sp].d(C)[sp].d(A)[sp].d(G)[sp].[cEt](C)[sp].[moe](A)[sp].[cEt](G)[sp].[moe](G)}$$$$V2.0 | 59% and 42% |  |
| RNA1{[moe](C)[sp].[moe](C)[sp].[moe](A)[sp].[moe](A)[sp].[moe](T)[sp].d(T)[sp].d(T)[sp].d(A)[sp].d(T)[sp].d(G)[sp].d(C)[sp].d(C)[sp].d(T)[sp].d(A)[sp].[moe](C)[sp].[moe](A)}$$$$V2.0 | 15% and 6% |  |

| Substance | target mRNA inhibition (HepG2, 0.07 µM) | also measured |
| --- | --- | --- |
| RNA1{[moe](C)[sp].[moe](C)[sp].[moe](G)[sp].[moe](C)[sp].[moe](A)[sp].d(G)[sp].d(T)[sp].d(A)[sp].d(T)[sp].d(G)[sp].d(G)[sp].d(A)[sp].d(T)[sp].d(C)[sp].[moe](G)[sp].[moe](G)}$$$$V2.0 | 75% and 71% |  |
| RNA1{[moe](C)[sp].[moe](C)[sp].[moe](G)[sp].d(C)[sp].d(A)[sp].d(G)[sp].d(T)[sp].d(A)[sp].d(T)[sp].d(G)[sp].d(G)[sp].d(A)[sp].d(T)[sp].[cEt](C)[sp].[cEt](G)[sp].[cEt](G)}$$$$V2.0 | 72% and 79% |  |
| RNA1{[moe](G)[sp].[moe](T)[sp].[moe](T)[sp].d(C)[sp].d(C)[sp].d(G)[sp].d(C)[sp].d(A)[sp].d(G)[sp].d(T)[sp].d(A)[sp].d(T)[sp].[moe](G)[sp].[moe](G)[sp].[moe](A)[sp].[moe](T)[sp].[moe](C)}$$$$V2.0 | 60% and 54% |  |
| RNA1{[moe](C)[sp].[moe](A)[sp].d(G)[sp].d(A)[sp].d(G)[sp].d(G)[sp].d(T)[sp].d(G)[sp].d(A)[sp].d(A)[sp].d(G)[sp].[moe](C)[sp].[moe](G)[sp].[moe](A)[sp].[moe](A)[sp].[moe](G)[sp].[moe](T)}$$$$V2.0 | 61% |  |
| RNA1{[moe](G)[sp].[cEt](C)[sp].[cEt](A)[sp].d(C)[sp].d(A)[sp].d(G)[sp].d(C)[sp].d(T)[sp].d(T)[sp].d(G)[sp].d(G)[sp].d(A)[sp].d(G)[sp].[cEt](G)[sp].[cEt](C)[sp].[moe](T)}$$$$V2.0 | 27% and 12% |  |
| RNA1{[moe](A)[sp].[moe](A)[sp].[moe](T)[sp].[moe](T)[sp].[moe](T)[sp].d(A)[sp].d(T)[sp].d(G)[sp].d(C)[sp].d(C)[sp].d(T)[sp].d(A)[sp].d(C)[sp].d(A)[sp].[moe](G)[sp].[moe](C)}$$$$V2.0 | 39% and 23% |  |
| RNA1{[moe](G)[sp].[cEt](C)[sp].d(A)[sp].d(G)[sp].d(A)[sp].d(G)[sp].d(G)[sp].d(T)[sp].d(G)[sp].d(A)[sp].d(A)[sp].d(G)[sp].[cEt](C)[sp].[moe](G)[sp].[cEt](A)[sp].[moe](A)}$$$$V2.0 | 80% and 85% | target mRNA inhibition (HepG2, 0.0092593 µM): 21%; target mRNA inhibition (HepG2, 0.0277778 µM): 48%; target mRNA inhibition (HepG2, 0.0833333 µM): 74%; target mRNA inhibition (HepG2, 0.25 µM): 88% |
| RNA1{[moe](A)[sp].[moe](A)[sp].[moe](G)[sp].[moe](C)[sp].d(G)[sp].d(A)[sp].d(A)[sp].d(G)[sp].d(T)[sp].d(G)[sp].d(C)[sp].d(A)[sp].d(C)[sp].[moe](A)[sp].[moe](C)[sp].[moe](G)}$$$$V2.0 | 68% and 62% |  |
| RNA1{[moe](G)[sp].[cEt](A)[sp].d(A)[sp].d(C)[sp].d(T)[sp].d(G)[sp].d(G)[sp].d(A)[sp].d(G)[sp].d(C)[sp].d(C)[sp].d(A)[sp].[cEt](C)[sp].[moe](C)[sp].[cEt](A)[sp].[moe](G)}$$$$V2.0 | 68% and 56% |  |
| RNA1{[moe](G)[sp].[cEt](A)[sp].[cEt](A)[sp].d(G)[sp].d(T)[sp].d(C)[sp].d(C)[sp].d(A)[sp].d(C)[sp].d(C)[sp].d(A)[sp].d(C)[sp].d(G)[sp].[cEt](A)[sp].[cEt](G)[sp].[moe](T)}$$$$V2.0 | 59% and 53% |  |
| RNA1{[moe](G)[sp].[moe](C)[sp].[moe](A)[sp].d(T)[sp].d(A)[sp].d(G)[sp].d(C)[sp].d(A)[sp].d(G)[sp].d(C)[sp].d(A)[sp].d(G)[sp].[moe](G)[sp].[moe](A)[sp].[moe](T)[sp].[moe](G)}$$$$V2.0 | 60% and 53% |  |
| RNA1{[moe](T)[sp].[cEt](C)[sp].[cEt](C)[sp].d(G)[sp].d(C)[sp].d(A)[sp].d(G)[sp].d(T)[sp].d(A)[sp].d(T)[sp].d(G)[sp].d(G)[sp].d(A)[sp].[cEt](T)[sp].[cEt](C)[sp].[moe](G)}$$$$V2.0 | 79% and 76% |  |
| RNA1{[moe](T)[sp].[moe](G)[sp].[moe](C)[sp].[moe](A)[sp].[moe](G)[sp].d(A)[sp].d(G)[sp].d(G)[sp].d(T)[sp].d(G)[sp].d(A)[sp].d(A)[sp].d(G)[sp].d(C)[sp].[moe](G)[sp].[moe](A)}$$$$V2.0 | 61% and 52% |  |
| RNA1{[moe](G)[sp].[moe](T)[sp].[moe](G)[sp].[moe](A)[sp].d(A)[sp].d(G)[sp].d(C)[sp].d(G)[sp].d(A)[sp].d(A)[sp].d(G)[sp].d(T)[sp].d(G)[sp].[moe](C)[sp].[moe](A)[sp].[moe](C)}$$$$V2.0 | 62% and 71% |  |
| RNA1{[moe](C)[sp].[moe](C)[sp].[moe](G)[sp].[moe](C)[sp].[moe](A)[sp].[moe](G)[sp].d(T)[sp].d(A)[sp].d(T)[sp].d(G)[sp].d(G)[sp].d(A)[sp].d(T)[sp].d(C)[sp].d(G)[sp].[moe](G)[sp].[moe](C)}$$$$V2.0 | 90% and 66% |  |
| RNA1{[moe](A)[sp].[moe](C)[sp].[moe](C)[sp].[moe](A)[sp].d(C)[sp].d(T)[sp].d(G)[sp].d(A)[sp].d(A)[sp].d(C)[sp].d(A)[sp].d(A)[sp].d(A)[sp].[moe](T)[sp].[moe](G)[sp].[moe](G)}$$$$V2.0 | 54% and 65% |  |

Reference: the OligoGym collection
